Test [1] deals with Serine/threonine-protein kinase Nek6 (Homo sapiens) (UniProt Q9HC98). Description: Selectivity interaction (KinomeScan (DiscoverX)) EUB0000229b NEK6. The following applies: at 10 µM.
The target in the next test is Misshapen-like kinase 1 (Homo sapiens, UniProt Q8N4C8). Description: Selectivity interaction (KinomeScan (DiscoverX)) EUB0000655a MINK1. The following applies: at 10 µM.
Test [2] has as its target T1, Mitogen-activated protein kinase kinase kinase 2 (Homo sapiens) (UniProt Q9Y2U5).
T1 sequence (whole entry): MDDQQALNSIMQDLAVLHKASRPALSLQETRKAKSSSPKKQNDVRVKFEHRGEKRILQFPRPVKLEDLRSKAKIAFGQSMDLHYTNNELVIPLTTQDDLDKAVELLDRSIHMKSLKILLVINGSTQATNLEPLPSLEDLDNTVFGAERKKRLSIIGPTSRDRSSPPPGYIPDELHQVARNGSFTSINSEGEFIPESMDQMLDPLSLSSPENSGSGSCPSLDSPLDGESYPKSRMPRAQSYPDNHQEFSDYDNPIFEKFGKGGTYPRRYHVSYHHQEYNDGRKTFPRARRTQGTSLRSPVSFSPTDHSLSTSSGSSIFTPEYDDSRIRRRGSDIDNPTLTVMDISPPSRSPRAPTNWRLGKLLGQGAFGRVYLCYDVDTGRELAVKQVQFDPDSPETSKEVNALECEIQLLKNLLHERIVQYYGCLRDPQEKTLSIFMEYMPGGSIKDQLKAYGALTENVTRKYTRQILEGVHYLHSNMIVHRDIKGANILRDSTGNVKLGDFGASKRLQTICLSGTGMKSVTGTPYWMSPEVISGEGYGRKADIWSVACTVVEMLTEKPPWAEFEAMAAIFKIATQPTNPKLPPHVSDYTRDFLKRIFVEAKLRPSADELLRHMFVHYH
Put plainly: Selectivity interaction (ActivX KiNativ screen (ex vivo kinase selectivity in human PBMCs)) EUB0001619a MAP3K2. The format is cell-based. The following applies: PBMC, at 1 µM.

The target of test [3] is Bone morphogenetic protein receptor type-1B (Homo sapiens, UniProt O00238). Put plainly: Selectivity interaction (KinomeScan (DiscoverX)) EUB0001619a BMPR1B. The following applies: at 1 µM.
The test system of test [4] is Tyrosine-protein kinase ABL1 (Homo sapiens), P00519 [F317L]. Description: Selectivity interaction (KinomeScan (DiscoverX)) EUB0001049a ABL1. The following applies: at 1 µM.
Sequence of Tyrosine-protein kinase ABL1 (Homo sapiens), P00519 [F317L] (P00519 whole entry F317L): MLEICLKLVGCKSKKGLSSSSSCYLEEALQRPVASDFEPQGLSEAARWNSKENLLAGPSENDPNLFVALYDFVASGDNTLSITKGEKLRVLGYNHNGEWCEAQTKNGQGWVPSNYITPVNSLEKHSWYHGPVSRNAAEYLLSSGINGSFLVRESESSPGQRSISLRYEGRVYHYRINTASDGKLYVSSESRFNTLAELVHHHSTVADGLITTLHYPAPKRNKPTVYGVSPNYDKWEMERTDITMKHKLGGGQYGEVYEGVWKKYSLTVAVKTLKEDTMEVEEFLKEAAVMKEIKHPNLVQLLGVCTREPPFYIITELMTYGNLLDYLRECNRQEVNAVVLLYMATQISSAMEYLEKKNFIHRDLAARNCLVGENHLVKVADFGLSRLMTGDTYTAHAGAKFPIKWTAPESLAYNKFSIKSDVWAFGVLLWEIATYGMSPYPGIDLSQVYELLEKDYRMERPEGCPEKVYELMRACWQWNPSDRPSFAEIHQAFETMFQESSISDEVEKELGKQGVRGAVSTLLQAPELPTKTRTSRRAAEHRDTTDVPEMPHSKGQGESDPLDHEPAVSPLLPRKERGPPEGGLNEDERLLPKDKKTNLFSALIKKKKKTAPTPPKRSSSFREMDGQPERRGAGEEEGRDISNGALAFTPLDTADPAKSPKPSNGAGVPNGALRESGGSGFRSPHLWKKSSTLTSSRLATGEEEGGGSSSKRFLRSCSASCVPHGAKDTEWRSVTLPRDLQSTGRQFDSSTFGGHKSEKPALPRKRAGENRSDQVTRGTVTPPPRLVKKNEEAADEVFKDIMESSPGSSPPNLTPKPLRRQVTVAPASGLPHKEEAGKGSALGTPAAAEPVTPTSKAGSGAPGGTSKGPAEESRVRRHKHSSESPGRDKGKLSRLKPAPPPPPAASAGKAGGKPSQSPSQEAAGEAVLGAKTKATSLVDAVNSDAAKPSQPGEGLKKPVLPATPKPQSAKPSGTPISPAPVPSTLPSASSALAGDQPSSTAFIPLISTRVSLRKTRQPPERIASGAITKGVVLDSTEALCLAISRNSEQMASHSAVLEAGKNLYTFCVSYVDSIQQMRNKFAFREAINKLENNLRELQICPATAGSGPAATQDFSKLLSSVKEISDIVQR
In test [5] the target is Mitogen-activated protein kinase kinase kinase 10 (Homo sapiens) (UniProt Q02779). Put plainly: Selectivity interaction (KinomeScan (DiscoverX)) EUB0001049a MAP3K10. The following applies: at 1 µM.
Sequence of Mitogen-activated protein kinase kinase kinase 10 (Homo sapiens) (Q02779 whole entry, looked up): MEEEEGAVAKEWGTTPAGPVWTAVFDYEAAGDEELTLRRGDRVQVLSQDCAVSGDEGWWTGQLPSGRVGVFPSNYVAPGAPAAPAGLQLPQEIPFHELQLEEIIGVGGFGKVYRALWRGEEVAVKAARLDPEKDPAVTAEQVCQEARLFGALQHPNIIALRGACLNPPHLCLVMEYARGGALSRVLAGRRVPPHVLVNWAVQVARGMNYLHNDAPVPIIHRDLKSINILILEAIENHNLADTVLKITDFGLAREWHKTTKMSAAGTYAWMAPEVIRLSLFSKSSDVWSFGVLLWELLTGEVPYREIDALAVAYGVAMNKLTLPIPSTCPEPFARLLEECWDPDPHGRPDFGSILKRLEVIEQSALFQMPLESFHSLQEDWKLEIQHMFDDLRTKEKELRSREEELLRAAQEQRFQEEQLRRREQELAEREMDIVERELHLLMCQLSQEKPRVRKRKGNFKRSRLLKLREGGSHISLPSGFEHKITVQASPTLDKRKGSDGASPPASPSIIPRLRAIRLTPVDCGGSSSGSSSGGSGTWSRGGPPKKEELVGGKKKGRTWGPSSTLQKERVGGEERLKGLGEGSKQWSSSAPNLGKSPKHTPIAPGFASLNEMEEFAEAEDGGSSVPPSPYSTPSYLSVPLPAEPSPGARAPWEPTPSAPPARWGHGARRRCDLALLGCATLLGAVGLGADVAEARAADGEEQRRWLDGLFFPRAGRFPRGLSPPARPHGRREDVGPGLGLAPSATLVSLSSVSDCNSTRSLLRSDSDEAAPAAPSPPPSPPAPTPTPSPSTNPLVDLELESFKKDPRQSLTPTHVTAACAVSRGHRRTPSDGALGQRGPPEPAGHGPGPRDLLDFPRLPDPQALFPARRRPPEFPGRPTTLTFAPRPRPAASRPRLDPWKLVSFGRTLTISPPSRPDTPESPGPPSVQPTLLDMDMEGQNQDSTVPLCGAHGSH
The target of test [6] is T2, Serine/threonine-protein kinase Nek1 (Homo sapiens) (UniProt Q96PY6).
T2 sequence (whole entry): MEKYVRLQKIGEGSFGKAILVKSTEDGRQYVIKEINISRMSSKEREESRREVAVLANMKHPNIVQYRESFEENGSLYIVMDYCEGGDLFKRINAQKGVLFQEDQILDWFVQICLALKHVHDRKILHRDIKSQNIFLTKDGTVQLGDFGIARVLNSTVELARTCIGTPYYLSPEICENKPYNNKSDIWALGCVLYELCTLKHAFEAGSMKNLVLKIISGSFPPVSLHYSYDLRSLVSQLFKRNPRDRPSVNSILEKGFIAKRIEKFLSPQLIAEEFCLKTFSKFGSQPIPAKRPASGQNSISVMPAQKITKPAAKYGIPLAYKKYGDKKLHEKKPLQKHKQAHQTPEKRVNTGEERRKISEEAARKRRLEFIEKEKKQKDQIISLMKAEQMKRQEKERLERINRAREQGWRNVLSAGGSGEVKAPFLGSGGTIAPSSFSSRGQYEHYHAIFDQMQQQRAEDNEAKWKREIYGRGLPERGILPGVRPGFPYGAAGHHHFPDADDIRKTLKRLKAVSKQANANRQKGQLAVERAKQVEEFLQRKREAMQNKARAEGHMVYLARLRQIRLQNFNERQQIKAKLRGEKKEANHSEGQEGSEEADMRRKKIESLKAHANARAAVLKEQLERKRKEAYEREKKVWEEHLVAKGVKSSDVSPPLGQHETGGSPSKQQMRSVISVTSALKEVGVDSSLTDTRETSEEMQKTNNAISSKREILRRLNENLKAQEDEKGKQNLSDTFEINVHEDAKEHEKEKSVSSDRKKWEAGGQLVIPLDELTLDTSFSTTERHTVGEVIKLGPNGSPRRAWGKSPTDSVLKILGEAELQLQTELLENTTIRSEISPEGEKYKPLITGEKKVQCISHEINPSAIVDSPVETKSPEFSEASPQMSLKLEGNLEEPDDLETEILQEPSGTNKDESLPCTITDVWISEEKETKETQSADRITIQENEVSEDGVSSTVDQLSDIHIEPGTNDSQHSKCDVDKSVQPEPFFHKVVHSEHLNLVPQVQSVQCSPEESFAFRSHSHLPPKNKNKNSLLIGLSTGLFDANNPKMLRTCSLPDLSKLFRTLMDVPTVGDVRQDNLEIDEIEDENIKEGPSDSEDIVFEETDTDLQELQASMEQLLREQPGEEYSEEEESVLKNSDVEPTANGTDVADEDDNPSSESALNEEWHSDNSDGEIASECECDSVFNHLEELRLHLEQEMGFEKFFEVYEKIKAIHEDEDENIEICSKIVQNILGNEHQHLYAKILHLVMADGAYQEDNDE
Description: Selectivity interaction (KinomeScan (DiscoverX)) EUB0000045b NEK1.

In test [7] the target is Serine/threonine-protein kinase 10 (Homo sapiens) (UniProt O94804). Put plainly: Selectivity interaction (Upstate Kinase Profiler service (Millipore)) EUB0000056c STK10. The following applies: at 1 µM.
Test [8] deals with RAC-gamma serine/threonine-protein kinase (Homo sapiens, UniProt Q9Y243). Put plainly: Selectivity interaction (Upstate Kinase Profiler service (Millipore)) EUB0000056c AKT3. The following applies: at 1 µM.
Sequence of RAC-gamma serine/threonine-protein kinase (Q9Y243 whole entry): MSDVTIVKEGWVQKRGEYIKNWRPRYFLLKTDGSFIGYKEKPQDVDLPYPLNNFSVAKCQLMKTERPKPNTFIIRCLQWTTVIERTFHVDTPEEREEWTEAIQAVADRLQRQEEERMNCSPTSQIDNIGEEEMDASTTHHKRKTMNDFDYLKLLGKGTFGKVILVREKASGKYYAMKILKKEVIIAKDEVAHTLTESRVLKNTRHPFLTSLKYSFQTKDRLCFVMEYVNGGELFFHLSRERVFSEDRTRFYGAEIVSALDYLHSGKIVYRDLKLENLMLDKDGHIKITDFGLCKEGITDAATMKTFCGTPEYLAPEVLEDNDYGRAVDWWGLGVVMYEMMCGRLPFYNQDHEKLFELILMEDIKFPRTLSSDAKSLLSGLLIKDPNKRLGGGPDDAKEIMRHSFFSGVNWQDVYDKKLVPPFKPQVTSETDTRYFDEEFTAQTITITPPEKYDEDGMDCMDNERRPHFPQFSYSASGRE
Test [9] has as its target Casein kinase II subunit alpha (Homo sapiens, UniProt P68400). The following applies: at 10 µM.

Structures are written as SMILES.

Sequence of Serine/threonine-protein kinase Nek6 (Homo sapiens) (Q9HC98 whole entry): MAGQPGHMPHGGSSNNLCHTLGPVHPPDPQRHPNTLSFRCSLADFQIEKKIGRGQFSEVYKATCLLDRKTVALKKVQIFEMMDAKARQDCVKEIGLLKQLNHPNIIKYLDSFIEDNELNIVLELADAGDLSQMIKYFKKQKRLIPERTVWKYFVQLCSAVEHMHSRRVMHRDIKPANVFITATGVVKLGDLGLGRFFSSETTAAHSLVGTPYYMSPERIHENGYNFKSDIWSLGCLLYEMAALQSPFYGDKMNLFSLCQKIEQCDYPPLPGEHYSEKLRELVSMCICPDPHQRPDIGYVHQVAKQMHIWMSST
Sequence of Misshapen-like kinase 1 (Q8N4C8 whole entry, looked up): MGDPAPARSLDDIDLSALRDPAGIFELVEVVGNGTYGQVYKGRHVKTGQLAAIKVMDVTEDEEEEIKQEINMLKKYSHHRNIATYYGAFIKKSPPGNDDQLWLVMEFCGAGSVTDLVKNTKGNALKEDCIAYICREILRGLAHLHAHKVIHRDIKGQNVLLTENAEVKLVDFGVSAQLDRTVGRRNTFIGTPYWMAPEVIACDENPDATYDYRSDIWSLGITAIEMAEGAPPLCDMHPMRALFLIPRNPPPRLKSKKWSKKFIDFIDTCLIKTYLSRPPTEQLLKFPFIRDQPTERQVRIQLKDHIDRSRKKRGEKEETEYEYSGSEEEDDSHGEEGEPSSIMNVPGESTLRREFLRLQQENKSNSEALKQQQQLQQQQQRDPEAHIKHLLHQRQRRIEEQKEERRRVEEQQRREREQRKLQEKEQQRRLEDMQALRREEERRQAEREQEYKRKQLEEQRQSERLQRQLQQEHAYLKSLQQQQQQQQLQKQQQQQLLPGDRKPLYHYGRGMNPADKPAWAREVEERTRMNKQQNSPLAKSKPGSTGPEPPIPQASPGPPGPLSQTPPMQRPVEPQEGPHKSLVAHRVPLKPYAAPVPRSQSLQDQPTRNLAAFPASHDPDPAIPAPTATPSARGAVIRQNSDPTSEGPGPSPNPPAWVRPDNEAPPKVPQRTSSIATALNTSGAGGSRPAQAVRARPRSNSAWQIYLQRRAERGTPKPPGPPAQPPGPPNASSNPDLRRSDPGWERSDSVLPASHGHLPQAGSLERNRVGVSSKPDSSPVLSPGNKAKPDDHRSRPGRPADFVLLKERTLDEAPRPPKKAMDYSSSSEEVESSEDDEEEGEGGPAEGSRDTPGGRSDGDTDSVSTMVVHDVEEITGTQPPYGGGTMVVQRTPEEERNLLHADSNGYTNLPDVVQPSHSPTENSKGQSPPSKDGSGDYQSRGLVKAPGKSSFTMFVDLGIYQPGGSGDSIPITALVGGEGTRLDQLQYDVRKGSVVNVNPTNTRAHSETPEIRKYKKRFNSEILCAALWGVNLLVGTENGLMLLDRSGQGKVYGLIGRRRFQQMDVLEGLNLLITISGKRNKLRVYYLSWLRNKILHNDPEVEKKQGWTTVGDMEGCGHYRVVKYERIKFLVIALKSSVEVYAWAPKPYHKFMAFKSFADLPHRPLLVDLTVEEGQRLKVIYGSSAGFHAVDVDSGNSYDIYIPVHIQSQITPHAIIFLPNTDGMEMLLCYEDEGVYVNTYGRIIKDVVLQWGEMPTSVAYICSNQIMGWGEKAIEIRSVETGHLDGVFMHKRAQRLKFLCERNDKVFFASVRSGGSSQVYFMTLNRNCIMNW
Sequence of Casein kinase II subunit alpha (P68400 whole entry, looked up): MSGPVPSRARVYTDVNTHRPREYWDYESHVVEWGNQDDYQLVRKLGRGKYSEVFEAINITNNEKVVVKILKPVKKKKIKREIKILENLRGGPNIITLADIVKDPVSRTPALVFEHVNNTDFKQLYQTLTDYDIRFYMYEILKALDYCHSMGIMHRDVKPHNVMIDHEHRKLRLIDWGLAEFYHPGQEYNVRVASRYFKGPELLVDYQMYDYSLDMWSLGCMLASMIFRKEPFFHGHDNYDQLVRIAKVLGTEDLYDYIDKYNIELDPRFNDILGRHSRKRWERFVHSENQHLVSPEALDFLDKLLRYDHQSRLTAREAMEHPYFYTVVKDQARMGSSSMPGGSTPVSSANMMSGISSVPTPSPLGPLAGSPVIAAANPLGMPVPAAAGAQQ

In test [1], `COc1cc(N(C)c2ccnc3ccc(C(F)(F)F)cc23)cc(OC)c1OC` registered a % binding of 100%.
`CN(C)CCOc1ccc(-c2nc(-c3ccncc3)c(-c3ccc4c(c3)CC/C4=N\O)[nH]2)cc1`: the % of control on Misshapen-like kinase 1 came out at 6%.
`N#Cc1cccc(-c2c[nH]c3ncnc(N4CCOCC4)c23)c1` registered a % of inhibition in [2] of 22%. Besides, the % of control in [3] came out at 31%.
Turning to `COc1cc(Nc2nc(C)cc(-c3cnn4nc(OC)ccc34)n2)cc(C(F)(F)F)c1`, the % of control turned out to be 91% in [4] and 100% in test [5].
As to `C=CC(=O)Nc1cc(-n2c(=O)ccc3cnc4ccc(-c5ccc(NS(C)(=O)=O)cc5)cc4c32)ccc1C`, the % of control in test [6] (at 1 µM) is 100%; in test [6] (at 10 µM), 81%.
For the compound `Cc1ccc(-c2ccc3c(ccc4sc5c(c43)NC[C@@H](C)NC5=O)n2)cn1`, the % of inhibition in test [7] is 47%; in [8], 0%.
`COCC(=O)NC/C=C/c1ccc2ncnc(Nc3ccc(Oc4ccc(C)nc4)c(C)c3)c2c1` [CP-724714] showed a % of control in test [9] of 87%.

The values above are taken from ChEMBL document CHEMBL5465560, “Selectivity Literature for EUbOPEN Chemogenomic Library” (2024).
